Assay results as given in patent US20130225611A1, “Compositions and Methods for Reducing Cancer Cell Proliferation and Modulating Importin-Beta Function” (THE REGENTS OF THE UNIVERSITY OF CALIFORNIA, priority 2011, published 2013).

Tests used:
transportin = target: T1, transportin (Homo sapiens, UniProt Q92973); assay: fluorescent thermal shift assay (Sypro Orange), transportin; format: binding; conditions: 2 μM protein, 50 μM importazole
T1 construct: made in house; host or cells: SG13 cells (E. coli)
T1 sequence (Q92973 1-898): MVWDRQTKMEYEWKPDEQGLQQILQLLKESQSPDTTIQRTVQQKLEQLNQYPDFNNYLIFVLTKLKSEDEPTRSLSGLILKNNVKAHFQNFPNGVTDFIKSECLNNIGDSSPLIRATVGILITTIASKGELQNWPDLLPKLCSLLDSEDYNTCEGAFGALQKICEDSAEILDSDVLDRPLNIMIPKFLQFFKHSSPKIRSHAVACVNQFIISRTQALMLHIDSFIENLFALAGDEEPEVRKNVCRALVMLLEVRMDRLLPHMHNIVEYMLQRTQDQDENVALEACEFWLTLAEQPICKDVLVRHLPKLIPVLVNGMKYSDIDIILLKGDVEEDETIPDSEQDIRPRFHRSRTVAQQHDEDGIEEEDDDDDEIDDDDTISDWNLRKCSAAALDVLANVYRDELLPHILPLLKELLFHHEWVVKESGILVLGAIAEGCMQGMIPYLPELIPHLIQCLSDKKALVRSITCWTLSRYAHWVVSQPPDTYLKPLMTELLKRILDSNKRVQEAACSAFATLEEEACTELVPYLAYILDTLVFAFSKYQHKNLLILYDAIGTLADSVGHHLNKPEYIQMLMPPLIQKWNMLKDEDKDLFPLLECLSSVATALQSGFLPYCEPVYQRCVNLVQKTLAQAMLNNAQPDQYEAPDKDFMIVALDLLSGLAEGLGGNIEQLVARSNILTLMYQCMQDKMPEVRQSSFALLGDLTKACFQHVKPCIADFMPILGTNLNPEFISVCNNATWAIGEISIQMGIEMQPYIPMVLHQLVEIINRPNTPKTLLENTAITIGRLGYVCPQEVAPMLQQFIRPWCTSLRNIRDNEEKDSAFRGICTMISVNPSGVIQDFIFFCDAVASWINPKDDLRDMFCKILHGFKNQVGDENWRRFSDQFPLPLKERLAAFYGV
Procedure: (§1) Experiments were performed using Applied Biosystems StepOnePlus™ Real-Time polymerase chain reaction (RT-PCR) System. Protein stocks were diluted in PBS and added 70% v/v to a Microamp® Fast 96-well Reaction Plate and maintained on ice. Compounds (importazole and control compound 3016) were then added at 30% v/v in 3% DMSO. Freshly prepared 100× water based-dilution of Sypro® Orange Protein Gel Stain was then added at 1% v/v to reach a final reaction volume of 20 μl. Samples were mixed by gentle pipetting. After sealing the plates with Microamp™ Optical Adhesive Film, the plate was subjected to a heating cycle composed of a 10 sec prewarming step at 25° C. and a gradient between 25° C. and 95° C. with a 0.3° C. ramp. Data was analyzed using the StepOnePlus™ Software v2.1.

HeLa cells = assay: HeLa cell viability assay (CellTiter-Glo); format: cell-based; conditions: Homo sapiens, treatment over a 24-hour period
Procedure: For HeLa cell viability assays to obtain an IC50, 10,000 actively growing HeLa cells per well were transferred to opaque white 96 well tissue culture plates at a final volume of 100 μl per well in DMEM plus 4% fetal bovine serum and 1% penicillin/streptomycin. Cells were allowed to grow at 37° C. for 24 hours. Individual wells were then treated for 12 hours with one of the following conditions: 1% DMSO, 5, 10, 20, 30, 40, 50, 60, 75, 100 μM IPZ. Following this treatment, the media was replaced and cells were treated for another 12 hours under the same conditions. The plates were then allowed to equilibrate to room temperature for 30 min, after which 100 μl of room temperature CellTiter-Glo reagent from the Promega CellTiter-Glo Luminescent Cell Viability Assay kit was added to each well. Plates were shaken for 2 min, incubated at room temperature for 10 min, then read on a luminometer. The average background signal for the plate was subtracted from the value of each individual well, and the resulting values were normalized to the signal level of the DMSO containing well.

[1] = target: T2, RanGTP/importin-β interaction (Homo sapiens, UniProt Q14974); assay: RanGTP protection assay (RanGAP-stimulated hydrolysis); format: biochemical; conditions: 50 μM importazole
T2 construct: made in house; host or cells: E. coli: BL21 (importin-β), SG13 (Ran)
Procedure: For RanGTP protection assays, all steps were performed in buffer containing 50 mM HEPES pH 7.6 with 2.5 mM MgCl2. Loading the Ran with GTP: 40 nM Biotin labeled RCC1 was bound to streptavidin agarose resin for 30 min rotating at 4° C. The Biotin labeled RCC1 was a gift of D. Halpin. The beads were washed with fresh buffer to remove any free RCC1, and 16 μM nucleotide free Ran and 51 μM GTPγP^32 were added and Ran was allowed to load for 30 min at room temperature. The beads were then removed using a spin column, and the remaining supernatant was filtered through a Sephadex G-50 column to remove free GTPγP^32. The loaded Ran was then diluted to 1.6 μM for further use. Performing the assay: All reactions were performed in a final volume of 200 μL at and in buffer containing 50 mM HEPES pH 7.6 with 2.5 mM MgCl2. Importin-β was pre-incubated with either 0.5% DMSO or 50 μM importazole in 0.5% DMSO and 100 nM RanGTPγP^32 at room temperature. 1 μM RanGAP was added to start each reaction, and the reaction was allowed to proceed for 5 min before the reaction was stopped using 1 ml of a solution containing 7% charcoal, 10% ethanol, 0.1 M HCl, and 10 mM KH2PO4. The resulting solution was spun at 10,000 RPM for 2 min in a tabletop centrifuge to pellet the charcoal, and the resulting supernatant was removed and counted for three min per sample in a liquid scintillation counter.

importin-β = target: T3, importin-β (Homo sapiens, UniProt Q14974); assay: fluorescent thermal shift assay (Sypro Orange), importin-β; format: binding; conditions: 2 μM importin-β, 50 μM compound
T3 construct: made in house; host or cells: BL21 cells (E. coli)
T3 sequence (Q14974 whole entry): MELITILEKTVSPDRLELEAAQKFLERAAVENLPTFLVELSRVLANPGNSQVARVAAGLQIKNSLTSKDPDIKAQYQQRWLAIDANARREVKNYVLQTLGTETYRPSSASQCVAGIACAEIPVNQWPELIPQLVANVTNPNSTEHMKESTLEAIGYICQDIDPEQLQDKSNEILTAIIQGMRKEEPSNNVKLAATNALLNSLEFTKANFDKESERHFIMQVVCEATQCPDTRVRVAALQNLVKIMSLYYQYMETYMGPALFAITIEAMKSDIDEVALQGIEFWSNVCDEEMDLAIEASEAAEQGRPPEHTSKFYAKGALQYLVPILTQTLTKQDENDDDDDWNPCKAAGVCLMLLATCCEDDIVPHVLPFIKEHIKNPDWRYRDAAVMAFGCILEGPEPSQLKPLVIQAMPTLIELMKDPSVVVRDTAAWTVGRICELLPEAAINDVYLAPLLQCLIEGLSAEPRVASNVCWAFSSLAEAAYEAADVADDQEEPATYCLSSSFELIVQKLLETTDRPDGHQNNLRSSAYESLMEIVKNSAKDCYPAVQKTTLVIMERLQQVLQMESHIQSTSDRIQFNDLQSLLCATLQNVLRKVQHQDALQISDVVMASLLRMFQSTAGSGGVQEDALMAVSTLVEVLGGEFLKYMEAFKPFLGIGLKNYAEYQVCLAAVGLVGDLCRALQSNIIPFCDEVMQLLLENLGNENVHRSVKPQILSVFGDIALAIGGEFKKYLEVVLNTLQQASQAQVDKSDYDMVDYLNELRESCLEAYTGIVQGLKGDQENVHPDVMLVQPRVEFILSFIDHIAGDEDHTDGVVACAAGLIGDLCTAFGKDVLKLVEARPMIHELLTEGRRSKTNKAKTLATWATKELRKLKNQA
Procedure: as §1

[2] = test system: CRM1-mediated export of NFAT-GFP; assay: NFAT-GFP nuclear export after ionomycin washout in HEK 293 cells; format: cell-based, human; conditions: HEK 293, importazole 40 μM, leptomycin B 10 ng/ml, 1 hour after ionomycin washout
Procedure: For all import and export experiments, HEK 293 cells stably expressing NFAT-GFP were grown on glass coverslips to approximately 50% confluency prior to drug treatment. In all cases, importazole was used at 40 μM and leptomycin B was used at 10 ng/ml. For controls, DMSO was used at a concentration of 0.4%. Ionomycin was added at 1.25 μM. Importazole and leptomycin B treatments were all for 1 hour. In all experiments cells were fixed with 4% formaldehyde prior to fluorescence microscopy. DNA was visualized with 1 μg/ml Hoechst dye.

CC(Nc1nc(N2CCCC2)nc2ccccc12)c1ccccc1 (centres unmarked) [importazole, (1-phenyl-ethyl)-(2-pyrrolidin-1-yl-quinazolin-4-yl)-amine]
effect on melting curve of transportin (transportin): did not significantly affect the melting curves
IC50 (HeLa cells): ~22.5 µM
effect on ability of importin-β to protect RanGTP from RanGAP-stimulated hydrolysis [1]: do not indicate that importazole disrupts the RanGTP/importin-β interaction
reduction of melting temperature of importin-β (importin-β): 1.72+/−0.27 °C
CRM1-mediated export of NFAT-GFP [2]: occurred efficiently
